From patent US9315490B2, “2,5-substituted pyrimidines” (Grünenthal GmbH, priority 2014, dated 2016)

How the values were obtained:
human PDE4B1 = molecular target: T1, human PDE4B1 (Homo sapiens, UniProt Q07343); test: TR-FRET assay using the LANCE Ultra cAMP kit to determine the activity of hPDE4B1; format: biochemical; details: read-out: Inhibition in % (inhibition of PDE4B); for inhibition at 10 µM: test concentration 10 μM (marked in cell); for inhibition at 1 µM: test concentration 1 μM
T1 construct: host or cells: Sf9 cells
T1 sequence (Q07343 whole entry): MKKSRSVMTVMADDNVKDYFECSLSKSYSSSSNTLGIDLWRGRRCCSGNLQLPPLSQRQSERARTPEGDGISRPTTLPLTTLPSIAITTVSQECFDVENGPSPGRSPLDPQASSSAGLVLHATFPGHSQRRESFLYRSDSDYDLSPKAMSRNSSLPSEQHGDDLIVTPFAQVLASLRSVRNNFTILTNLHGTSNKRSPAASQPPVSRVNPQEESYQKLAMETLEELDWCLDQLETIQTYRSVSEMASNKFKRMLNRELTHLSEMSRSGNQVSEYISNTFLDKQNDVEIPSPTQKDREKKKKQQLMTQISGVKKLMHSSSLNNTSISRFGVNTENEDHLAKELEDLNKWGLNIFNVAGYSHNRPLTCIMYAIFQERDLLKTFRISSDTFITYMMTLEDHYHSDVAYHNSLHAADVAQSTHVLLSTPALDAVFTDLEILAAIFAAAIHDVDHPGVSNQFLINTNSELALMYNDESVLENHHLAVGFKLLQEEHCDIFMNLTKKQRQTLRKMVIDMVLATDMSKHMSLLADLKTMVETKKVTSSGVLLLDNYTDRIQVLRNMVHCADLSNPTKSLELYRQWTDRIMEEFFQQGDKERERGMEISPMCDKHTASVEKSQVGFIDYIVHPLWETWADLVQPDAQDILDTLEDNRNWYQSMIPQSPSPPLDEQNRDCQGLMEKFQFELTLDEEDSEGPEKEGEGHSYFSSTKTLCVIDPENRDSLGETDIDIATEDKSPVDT
Method in brief: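 Sf9-expressed recombinant human PDE4B1 (0.96 U) hydrolyses 500 nM cAMP for 30 minutes at room temperature in 50 mM Tris-HCl, 50 mM MgCl2, 5 mM DTT, pH 8.5. The reaction is stopped with IBMX, and residual cAMP is measured by TR-FRET (665/620 ratio). IC50 comes from ten concentrations.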

| inhibition at 10 µM (human PDE4B1) | SMILES | also measured |
| --- | --- | --- |
| – | C[S+]([O-])c1cn(-c2ncc(-c3ccccc3C#N)cn2)c2cc(C(=O)N3CCNCC3)ccc12 (stereo not shown) [Example 16, 2-(2-(3-(Methylsulfinyl)-6-(piperazine-1-carbonyl)-1H-indol-1-yl)pyrimidin-5-yl)benzonitrile] | melting point: 230 to 235 °C |
| – | CS(=O)(=O)c1cn(-c2ncc(-c3ccc(F)cc3F)cn2)c2cc(C(=O)N3CCNCC3)ccc12 [Example 23, (1-(5-(2,4-Difluorophenyl)pyrimidin-2-yl)-3-(methylsulfonyl)-1H-indol-6-yl)(piperazin-1-yl)methanone] | melting point: 229 to 233 °C |
| – | CS(=O)(=O)c1cn(-c2ncc(-c3ccccc3C#N)cn2)c2cc(C(=O)N3CCNCC3)ccc12 [Example 25, 2-(2-(3-(Methylsulfonyl)-6-(piperazine-1-carbonyl)-1H-indol-1-yl)pyrimidin-5-yl)benzonitrile] | melting point: 193 to 197 °C |
| – | C[S+]([O-])c1cn(-c2ncc(-c3ncc(C#N)s3)cn2)c2cc(C(=O)N3CCOCC3)ccc12 (stereo not shown) [Example 207, 2-(2-(3-(Methylsulfinyl)-6-(morpholine-4-carbonyl)-1H-indol-1-yl)pyrimidin-5-yl)thiazole-5-carbonitrile] | melting point: 280 to 283 °C |
| 98% | CCc1ccc(F)c(-c2cnc(-n3cc(S(C)(=O)=O)c4ccc(C(=O)N(C)CC(N)=O)cc43)nc2)c1 [Example 311, N-(2-Amino-2-oxoethyl)-1-(5-(5-ethyl-2-fluorophenyl)pyrimidin-2-yl)-N-methyl-3-(methylsulfonyl)-1H-indole-6-carboxamide] | – |
| 93% | CS(=O)(=O)c1cn(-c2ncc(-c3cc(Cl)ccn3)cn2)c2cc(C(=O)N3CCOCC3)ccc12 [Example 312, (1-(5-(4-Chloropyridin-2-yl)pyrimidin-2-yl)-3-(methylsulfonyl)-1H-indol-6-yl)(morpholino)methanone] | – |
| – | CN(C)C(=O)c1ccc2c([S+](C)[O-])cn(-c3ncc(-c4ccccn4)cn3)c2c1 (stereo not shown) [Example 313, N,N-Dimethyl-3-(methylsulfinyl)-1-(5-(pyridin-2-yl)pyrimidin-2-yl)-1H-indole-6-carboxamide] | inhibition at 1 µM (human PDE4B1): 92% |
| 98% | Cc1cccc(-c2cnc(-n3cc([S+](C)[O-])c4ccc(C(=O)N(C)C)cc43)nc2)n1 (stereo not shown) [Example 314, N,N-Dimethyl-1-(5-(6-methylpyridin-2-yl)pyrimidin-2-yl)-3-(methylsulfinyl)-1H-indole-6-carboxamide] | – |
| 97% | Cc1ccc(F)c(-c2cnc(-n3cc([S+](C)[O-])c4ccc(C(=O)N(C)CCO)cc43)nc2)c1 (stereo not shown) [Example 315, 1-(5-(2-Fluoro-5-methylphenyl)pyrimidin-2-yl)-N-(2-hydroxyethyl)-N-methyl-3-(methylsulfinyl)-1H-indole-6-carboxamide] | – |
| 98% | CCOc1ccc(F)c(-c2cnc(-n3cc([S+](C)[O-])c4ccc(C(=O)N(C)CCO)cc43)nc2)c1 (stereo not shown) [Example 316, 1-(5-(5-Ethoxy-2-fluorophenyl)pyrimidin-2-yl)-N-(2-hydroxyethyl)-N-methyl-3-(methylsulfinyl)-1H-indole-6-carboxamide] | – |
| 87% | Cc1ccnc(-c2cnc(-n3cc([S+](C)[O-])c4ccc(C(=O)N(C)CCO)cc43)nc2)c1 (stereo not shown) [Example 317, N-(2-Hydroxyethyl)-N-methyl-1-(5-(4-methylpyridin-2-yl)pyrimidin-2-yl)-3-(methylsulfinyl)-1H-indole-6-carboxamide] | – |
| 96% | Cc1ccnc(-c2cnc(-n3cc(C(C)O)c4ccc(C(=O)N5CCOCC5)cc43)nc2)c1 (stereo not shown) [Example 318, (3-(1-Hydroxyethyl)-1-(5-(4-methylpyridin-2-yl)pyrimidin-2-yl)-1H-indol-6-yl)(morpholino)methanone] | – |
| 99% | CCOc1ccc(F)c(-c2cnc(-n3cc(C(C)O)c4ccc(C(=O)N5CCOCC5)cc43)nc2)c1 (stereo not shown) [Example 319, (1-(5-(5-Ethoxy-2-fluorophenyl)pyrimidin-2-yl)-3-(1-hydroxyethyl)-1H-indol-6-yl)(morpholino)methanone] | – |
| 109% | Cc1ccc(F)c(-c2cnc(-n3cc(C(C)O)c4ccc(C(=O)N5CCOCC5)cc43)nc2)c1 (stereo not shown) [Example 320] | – |
| 143% | Cc1ccc(F)c(-c2cnc(-n3cc(C(C)O)c4ccc(C(=O)N5CC[C@@H](N)C5)cc43)nc2)c1 (stereo partly drawn) [Example 321, ((R)-3-Aminopyrrolidin-1-yl)(1-(5-(2-fluoro-5-methylphenyl)pyrimidin-2-yl)-3-(1-hydroxyethyl)-1H-indol-6-yl)methanone] | – |
| 100% | Cc1ccc(F)c(-c2cnc(-n3cc(C(C)O)c4ccc(C(=O)N(C)C)cc43)nc2)c1 (stereo not shown) [Example 322, 1-(5-(2-Fluoro-5-methylphenyl)pyrimidin-2-yl)-3-(1-hydroxyethyl)-N,N-dimethyl-1H-indole-6-carboxamide] | – |

| inhibition at 10 µM (human PDE4B1) | SMILES | also measured |
| --- | --- | --- |
| 103% | Cc1ccc(F)c(-c2cnc(-n3cc(C(C)O)c4ccc(C(=O)N(C)CC(N)=O)cc43)nc2)c1 (stereo not shown) [Example 323, N-(2-Amino-2-oxoethyl)-1-(5-(2-fluoro-5-methylphenyl)pyrimidin-2-yl)-3-(1-hydroxyethyl)-N-methyl-1H-indole-6-carboxamide] | – |
| – | CC(C)c1ccnc(-c2cnc(-n3cc(S(C)(=O)=O)c4ccc(C(=O)N5CCOCC5)cc43)nc2)c1 [Example 324, (1-(5-(4-Isopropylpyridin-2-yl)pyrimidin-2-yl)-3-(methylsulfonyl)-1H-indol-6-yl)(morpholino)methanone] | inhibition at 1 µM (human PDE4B1): 76% |
| 91% | CCc1ccnc(-c2cnc(-n3cc(S(C)(=O)=O)c4ccc(C(=O)N5CCOCC5)cc43)nc2)c1 [Example 325, (1-(5-(4-Ethylpyridin-2-yl)pyrimidin-2-yl)-3-(methylsulfonyl)-1H-indol-6-yl)(morpholino)methanone] | – |
| – | CCOc1ccc(F)c(-c2cnc(-n3cc(S(C)(=O)=O)c4ccc(C(=O)N5CCOCC5)cc43)nc2)c1 [Example 326, (1-(5-(5-Ethoxy-2-fluorophenyl)pyrimidin-2-yl)-3-(methylsulfonyl)-1H-indol-6-yl)(morpholino)methanone] | inhibition at 1 µM (human PDE4B1): 98% |
| 90% | CS(=O)(=O)c1cn(-c2ncc(-c3cc(C4CC4)ccn3)cn2)c2cc(C(=O)N3CCOCC3)ccc12 [Example 327, (1-(5-(4-Cyclopropylpyridin-2-yl)pyrimidin-2-yl)-3-(methylsulfonyl)-1H-indol-6-yl)(morpholino)methanone] | – |
| 89% | Cc1ccc(F)c(-c2cnc(-n3cc(S(C)(=O)=O)c4ccc(C(=O)N(C)CC(N)=O)cc43)nc2)c1 [Example 328, N-(2-Amino-2-oxoethyl)-1-(5-(2-fluoro-5-methylphenyl)pyrimidin-2-yl)-N-methyl-3-(methylsulfonyl)-1H-indole-6-carboxamide] | – |
| 109% | CCc1ccc(F)c(-c2cnc(-n3cc(C(C)O)c4ccc(C(=O)N(C)CC(N)=O)cc43)nc2)c1 (stereo not shown) [Example 331, N-(2-Amino-2-oxoethyl)-1-(5-(5-ethyl-2-fluorophenyl)pyrimidin-2-yl)-3-(1-hydroxyethyl)-N-methyl-1H-indole-6-carboxamide] | – |
| 82% | Cc1ccnc(-c2cnc(-n3cc(C(C)O)c4ccc(C(=O)N(C)CC(N)=O)cc43)nc2)c1 (stereo not shown) [Example 332, N-(2-Amino-2-oxoethyl)-3-(1-hydroxyethyl)-N-methyl-1-(5-(4-methylpyridin-2-yl)pyrimidin-2-yl)-1H-indole-6-carboxamide] | – |
| 64% | Cc1ccnc(-c2cnc(-n3cc([S+](C)[O-])c4ccc(C(=O)N5CC[C@@H](N)C5)cc43)nc2)c1 (stereo partly drawn) [Example 336, ((R)-3-Aminopyrrolidin-1-yl)(1-(5-(4-methylpyridin-2-yl)pyrimidin-2-yl)-3-(methylsulfinyl)-1H-indol-6-yl)methanone] | – |
| 108% | C[S+]([O-])c1cn(-c2ncc(-c3cc(C4CC4)ccn3)cn2)c2cc(C(=O)N3CCCC3)ccc12 (stereo not shown) [Example 341, (1-(5-(4-Cyclopropylpyridin-2-yl)pyrimidin-2-yl)-3-(methylsulfinyl)-1H-indol-6-yl)(pyrrolidin-1-yl)methanone] | – |
| 113% | COc1ccnc(-c2cnc(-n3cc([S+](C)[O-])c4ccc(C(=O)N5CCCC5)cc43)nc2)c1 (stereo not shown) [Example 342, (1-(5-(4-Methoxypyridin-2-yl)pyrimidin-2-yl)-3-(methylsulfinyl)-1H-indol-6-yl)(pyrrolidin-1-yl)methanone] | – |
| 100% | CCOc1ccnc(-c2cnc(-n3cc([S+](C)[O-])c4ccc(C(=O)N5CCCC5)cc43)nc2)c1 (stereo not shown) [Example 343, (1-(5-(4-Ethoxypyridin-2-yl)pyrimidin-2-yl)-3-(methylsulfinyl)-1H-indol-6-yl)(pyrrolidin-1-yl)methanone] | – |
| 92% | CS(=O)(=O)c1cn(-c2ncc(-c3ccccc3F)cn2)c2cc(C(=O)N3C[C@H]4C[C@@H]3CO4)ccc12 [Example 349, (1R,4R)-2-Oxa-5-azabicyclo[2.2.1]heptan-5-yl(1-(5-(2-fluorophenyl)pyrimidin-2-yl)-3-(methylsulfonyl)-1H-indol-6-yl)methanone] | – |
| – | Cc1ccc(F)c(-c2cnc(-n3cc(S(C)(=O)=O)c4ccc(C(=O)N5CCOCC5)cc43)nc2)c1 [Example 350, (1-(5-(2-Fluoro-5-methylphenyl)pyrimidin-2-yl)-3-(methylsulfonyl)-1H-indol-6-yl)(morpholino)methanone] | inhibition at 1 µM (human PDE4B1): 93% |
| – | Cc1ccnc(-c2cnc(-n3cc(S(C)(=O)=O)c4ccc(C(=O)N5CCOCC5)cc43)nc2)c1 [Example 353, (1-(5-(4-Methylpyridin-2-yl)pyrimidin-2-yl)-3-(methylsulfonyl)-1H-indol-6-yl)(morpholino)methanone] | inhibition at 1 µM (human PDE4B1): 54% |
